Measured values from patent US20260001914A1, “MACROCYCLIC PEPTIDES TARGETING KRAS” (Merck Sharp & Dohme LLC, priority 2022, published 2026).
*1 amine or outer side, *2 acyl side, *3 side chain or, on linkers, in order; H or OH if unused. Where a SMILES comes first, the peptide text is derived from it. Bridges are numbered along the chain shown (N, C = ends). [ ]: non-standard residue; d: D form. The star is where a group is joined. cBu(1-CO,cis-3-CH2NH) = O=C([C@H]1C[C@@H](CN[*:1])C1)[*:2]; NMeNva(5-imidazol-1-yl) = CN[C@@H](CCCn1ccnc1)C(=O)O; Phe(4-guanidino) = N=C(N)Nc1ccc(C[C@H](N)C(=O)O)cc1; X59 = O=C([C@H](Cc1ccc(CN2CCCC2)cc1)N[*:1])[*:2]; X22 = CNC(=N)N(C)CCC[C@@H](C(=O)[*:2])N(C)[*:1]; Ala(pyrimidin-5-yl) = N[C@@H](Cc1cncnc1)C(=O)O; 3Pal(6-OMe) = COc1ccc(C[C@H](N)C(=O)O)cn1; Phe(3-Me) = Cc1cccc(C[C@H](N)C(=O)O)c1; X28 = O=C([C@H](Cc1ncccn1)N[*:1])[*:2]; 1Nal = N[C@@H](Cc1cccc2ccccc12)C(=O)O; Ala(cPent) = N[C@@H](CC1CCCC1)C(=O)O; Phe(2-F) = N[C@@H](Cc1ccccc1F)C(=O)O; X70 = O=C(C1CC2(C1)CN([*:1])C2)[*:2]; Gly(octyl) = CCCCCCCC[C@H](N)C(=O)O; NMe3Pal = CN[C@@H](Cc1cccnc1)C(=O)O; X1 = O=C(C12CC(CN[*:1])(C1)C2)[*:2]; NMeAad = CN[C@@H](CCCC(=O)O)C(=O)O; Ala(cPr) = N[C@@H](CC1CC1)C(=O)O; NMeF = CN[C@@H](Cc1ccccc1)C(=O)O; PhLac = O=C(O)[C@@H](O)Cc1ccccc1; 3Pal = N[C@@H](Cc1cccnc1)C(=O)O; 4Pal = N[C@@H](Cc1ccncc1)C(=O)O; Ahp(2) = CCCCC[C@H](N)C(=O)O; Ala(CN) = N#CC[C@H](N)C(=O)O; Cba = N[C@@H](CC1CCC1)C(=O)O; hLeu = CC(C)CC[C@H](N)C(=O)O; αMeC = C[C@](N)(CS)C(=O)O; NMeA = CN[C@@H](C)C(=O)O; Nle = CCCC[C@H](N)C(=O)O; Pyrrolidide = C1CCN(*)C1

Molecular target: KRAS-G12D protein (Homo sapiens, UniProt P01116, G12D)
Sequence (P01116 1-188 isoform P01116-2 G12D): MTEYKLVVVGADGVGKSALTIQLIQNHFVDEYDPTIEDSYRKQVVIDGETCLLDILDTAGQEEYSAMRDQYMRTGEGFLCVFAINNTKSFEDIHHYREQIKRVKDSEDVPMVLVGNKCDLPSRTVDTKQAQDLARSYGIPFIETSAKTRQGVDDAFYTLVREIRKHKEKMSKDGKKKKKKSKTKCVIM
Assay: SOS-mediated nucleotide exchange assay (BODIPY-GDP / Tb-streptavidin TR-FRET)
Type: biochemical

First: CCCCCCCC[C@@H]1NC(=O)[C@H](Cc2ccc(O)cc2)NC(=O)[C@H](CC(C)C)NC(=O)[C@H](Cc2ccc(O)cc2)NC(=O)[C@H](CCCNC(=N)N)NC(=O)[C@H](Cc2ccccc2)NC(=O)CSC[C@@H](C(=O)NCC(=O)N[C@@H](CCCCN)C(=O)N[C@@H](CCCCN)C(N)=O)NC(=O)[C@H](Cc2ccccc2)N(C)C1=O [compound 59, cyclo(-F-R-Y-L-Y-Aca-NMeF-C2-ClAc)] ({CH2CO}-FRYLY[Gly(octyl)][NMeF]CGKK-NH2; thioether N-8)
Second: CCC[C@@H]1NC(=O)[C@H](Cc2ccc(O)cc2)NC(=O)[C@H](CC(C)C)NC(=O)[C@H](Cc2ccc(O)cc2)NC(=O)[C@H](CCCNC(=N)N)NC(=O)[C@H](Cc2ccccc2)NC(=O)CSC[C@@H](C(N)=O)NC(=O)[C@H](Cc2ccccc2)N(C)C1=O [compound 16, cyclo(F-R-Y-L-Y-Nva-NMeF-Cl-ClAc)]
The EC50 of the first is 4.5-fold lower: 812 nM for the first, 3620 nM for the second.

Compared with `CCCCC[C@@H]1NC(=O)[C@H](Cc2ccc(OC)cc2)NC(=O)[C@H](CC2CCC2)NC(=O)[C@H](Cc2ccc(OC)nc2)NC(=O)[C@H](CCCNC(=N)N)NC(=O)[C@H](Cc2ccccc2)NC(=O)CSC[C@@](C)(C(N)=O)NC(=O)[C@H](Cc2ccccc2)N(C)C1=O` [compound 365, cyclo(F-R-40Me3Pal-cBuA-TyrOMe-Ahp-NMeF-aMeCl-ClAc)] ({CH2CO}-FR[3Pal(6-OMe)][Cba]Y(Me)[Ahp(2)][NMeF][αMeC]-NH2; thioether N-8), `CCCCC[C@@H]1NC(=O)[C@H](Cc2ccc(OC)cc2)NC(=O)[C@H](CC2CCC2)NC(=O)[C@H](Cc2cccnc2)NC(=O)[C@H](CCCNC(=N)N)NC(=O)[C@H](Cc2ccccc2)NC(=O)CSC[C@@](C)(C(N)=O)NC(=O)[C@H](Cc2ccccc2)N(C)C1=O` [compound 347, cyclo(F-R~3Pal-cBuA-TyrOMe-Ahp-NMeF-aMeCl-ClAc)] is 8.8-fold lower in EC50: 50.3 nM for the first, 5.72 nM for the second.

Going from `CCCCC[C@@H]1NC(=O)[C@H](CC(=O)N2CCCC2)NC(=O)[C@H](CC2CCC2)NC(=O)[C@H](Cc2cccnc2)NC(=O)[C@H](CCCNC(=N)N)NC(=O)[C@H](Cc2ccccc2)NC(=O)CSC[C@@](C)(C(N)=O)NC(=O)[C@H](Cc2ccccc2)N(C)C1=O` [compound 373, cyclo(F-R~3Pal-cBuA-PyD-Ahp-NMeF-aMeCl-ClAc)] ({CH2CO}-FR[3Pal][Cba]D(Pyrrolidide)[Ahp(2)][NMeF][αMeC]-NH2; thioether N-8) to `CCCC[C@@H]1NC(=O)[C@H](Cc2ccc(OC)cc2)NC(=O)[C@H](CC2CCC2)NC(=O)[C@H](Cc2cccnc2)NC(=O)[C@H](CCCNC(=N)N)NC(=O)[C@H](Cc2ccccc2)NC(=O)C2CC3(C2)CN(C3)C(=O)[C@H](Cc2ccccc2)N(C)C1=O` [compound 102, cyclo(F-R-3Pal-cBuA-TyrOMe-Nlc-NMeF-spiro44)] (cyclo(FR[3Pal][Cba]Y(Me)[Nle][NMeF][X70])), the EC50 rises from 1970 nM to 7340 nM (3.7-fold).

Compared with `CCCC[C@@H]1NC(=O)[C@H](Cc2cccnc2)NC(=O)[C@H](C)N(C)C(=O)[C@H](Cc2cccc(C)c2)NC(=O)C23CC(CNC(=O)[C@H](Cc4cccnc4)N(C)C(=O)[C@H](CCCC)NC(=O)[C@H](Cc4ccccc4F)NC1=O)(C2)C3` [compound 166, cyclo(Phe3Me-NMeA-3Pal-Nle-Phe2F-Nle-NMe3Pal-amBCP)] (cyclo([3Pal][Nle][Phe(2-F)][Nle][NMe3Pal][X1][Phe(3-Me)][NMeA])), `CCCC[C@@H]1NC(=O)[C@H](Cc2cccnc2)NC(=O)[C@H](CC#N)NC(=O)[C@H](Cc2ccccc2)OC(=O)C23CC(CNC(=O)[C@H](Cc4cccnc4)N(C)C(=O)[C@H](CCCC)NC(=O)[C@H](Cc4ccccc4F)NC1=O)(C2)C3` [compound 252, cyclo(FLac-AlaCN-3Pal-Nle-Phe2F-Nle-NMe3Pal-amBCP)] (cyclo([3Pal][Nle][Phe(2-F)][Nle][NMe3Pal][X1][PhLac][Ala(CN)])) is 170-fold higher in EC50: 22.3 nM for the first, 3750 nM for the second. The first is the more potent here.

`CCCC[C@@H]1NC(=O)[C@H](Cc2ccc(NC(=N)N)cc2)NC(=O)[C@H](CCCN(C)C(=N)NC)N(C)C(=O)[C@H](Cc2ccccc2)NC(=O)[C@H]2C[C@@H](CNC(=O)[C@H](Cc3ccccc3)N(C)C(=O)[C@H](CCCC)NC(=O)[C@H](Cc3ccc(OC)cc3)NC1=O)C2` [compound 384, cyclo(F-NMeArg1MeMe-Phe4Gn-Nle-TyrOMe-Nle-NMeF-c3amCblc)] (cyclo(F[X22][Phe(4-guanidino)][Nle]Y(Me)[Nle][NMeF][cBu(1-CO,cis-3-CH2NH)])) and `CCCC[C@@H]1NC(=O)[C@H](Cc2cccnc2)NC(=O)[C@H](CCCC(=O)N(C)C)N(C)C(=O)[C@H](Cc2ccccc2)OC(=O)C23CC(CNC(=O)[C@H](Cc4cccnc4)N(C)C(=O)[C@H](CCCC)NC(=O)[C@H](Cc4ccccc4F)NC1=O)(C2)C3` [compound 408, cyclo(FLac-hQdm-3Pal-Nle-Phe2F-Nle-NMe3Pal-amBCP)] (cyclo([3Pal][Nle][Phe(2-F)][Nle][NMe3Pal][X1][PhLac][NMeAad](NMe2))) are within 1.5-fold of each other in EC50: 181 nM for the first, 161 nM for the second.

Compared with `CCCC[C@@H]1NC(=O)[C@H](Cc2ccc(CN3CCCC3)cc2)NC(=O)[C@H](CCCn2ccnc2)N(C)C(=O)[C@H](Cc2ccccc2)N(C)C(=O)C23CC(CNC(=O)[C@H](Cc4cccnc4)N(C)C(=O)[C@H](CCCC)NC(=O)[C@H](Cc4ccccc4F)NC1=O)(C2)C3` [compound 259, cyclo(NMeF-NMeNvalmid-Phe4cPyrr-Nle-Phe2F-Nle-NMe3Pal-amBCP)] (cyclo([NMe3Pal][X1][NMeF][NMeNva(5-imidazol-1-yl)][X59][Nle][Phe(2-F)][Nle])), `CCCC[C@@H]1NC(=O)[C@H](Cc2cncnc2)NC(=O)[C@H](CCCn2ccnc2)N(C)C(=O)[C@H](Cc2ccccc2)OC(=O)C23CC(CNC(=O)[C@H](Cc4ccccc4)N(C)C(=O)[C@H](CCCC)NC(=O)[C@H](Cc4ccccc4F)NC1=O)(C2)C3` (single isomer, unassigned) [compound 222, cyclo(FLac-NMeNvalmid-PyrimAla-Nle-Phe2F-Nle-NMeF-amBCP)] is 6.5-fold lower in EC50: 3220 nM for the first, 494 nM for the second. The second is the more potent here.

First: CC(C)CC[C@@H]1NC(=O)[C@H](Cc2ccccc2F)NC(=O)[C@H](CC2CC2)NC(=O)[C@H](Cc2ncccn2)NC(=O)[C@H](C)N(C)C(=O)[C@H](Cc2ccccc2)OC(=O)C23CC(CNC(=O)[C@H](Cc4ccccc4)N(C)C1=O)(C2)C3 [compound 281, cyclo(FLac-NMeA-2PyrimAla-cPrA-Phe2F-hL-NMeF-amBCP)] (cyclo([Ala(cPr)][Phe(2-F)][hLeu][NMeF][X1][PhLac][NMeA][X28]))
Second: CCCC[C@@H]1NC(=O)[C@H](Cc2ccccc2F)NC(=O)[C@H](CC2CCCC2)NC(=O)[C@H](Cc2cncnc2)NC(=O)[C@H](C)N(C)C(=O)[C@H](Cc2ccccc2)OC(=O)C23CC(CNC(=O)[C@H](Cc4cccnc4)N(C)C1=O)(C2)C3 [compound 126, cyclo(FLac-NMeA-PyrimAla-cPeA-Phe2F-Nle-NMe3Pal-amBCP)] (cyclo([Ala(cPent)][Phe(2-F)][Nle][NMe3Pal][X1][PhLac][NMeA][Ala(pyrimidin-5-yl)]))
The EC50 of the first is 54-fold higher: 1210 nM for the first, 22.3 nM for the second.

`CCCC[C@@H]1NC(=O)[C@H](Cc2ccncc2)NC(=O)[C@H](CCCNC(=N)N)NC(=O)[C@H](Cc2cccc3ccccc23)NC(=O)CSC[C@@](C)(C(N)=O)NC(=O)[C@H](Cc2cccnc2)N(C)C(=O)[C@H](CCCC)NC(=O)[C@H](Cc2ccc(O)cc2)NC1=O` [compound 333, cyclo(INal-R-4Pal-Nle-Y-Nle-NMe3Pal-aMeCl-ClAc)] ({CH2CO}-[1Nal]R[4Pal][Nle]Y[Nle][NMe3Pal][αMeC]-NH2; thioether N-8) was tested, and the EC50 was 19.9 nM.
